The values below are quoted from earlier work in US20100003319A1, “RALOXIFENE IMMEDIATE RELEASE TABLETS” (GLENMARK GENERICS LTD., priority 2008, published 2010).

Each structure is given as a SMILES string.

As for `O=C(c1ccc(OCCN2CCCCC2)cc1)c1c(-c2ccc(O)cc2)sc2cc(O)ccc12` [raloxifene, [6-hydroxy-2-(4-hydroxyphenyl)-benzothiophen-3-yl]-[4-[2-(1-piperidyl)ethoxy]phenyl]-methanone], the Solubility in water entry was “very slightly soluble”.
